Where two headings read alike, the source gives them in different places.
System: ALP in normal human articular chondrocytes (NHACs)
Test: Alkaline Phosphatase (ALP) activity assay (staining and quantitation) in NHACs, prevention of chondrocyte hypertrophy
Assay type: cell-based
Conditions: human IL-1 beta 10 ng/mL, 12 days; for IC50: Fast Blue RR staining, high content imaging, read-out: ALP in NHAC IC50; for Emax: read-out: ALP in NHAC (% Efficacy)
Procedure, shortened: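 Primary human articular chondrocytes plated at 7,500 cells/well in DMEM with 10% FBS alongside test compound, incubated 5 h at 37 °C, then given IL-1β (10 ng/mL final) for 12 days. Fixed cells stained for ALP with Fast Blue RR/naphthol AS-MX, Hoechst counterstain. Read by fluorescence imaging (561 nm) and/or high-content cell scoring.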

[1] = Chondrocyte, 288 h, value in parentheses

## Cc1cc(NC(=O)[C@@H]2[C@@H](c3cn(C)nc3C(F)(F)F)[C@H]3O[C@@H]2C[C@@H]3O)cc(C(F)(F)F)c1 (racemic) [Example 30, rac-(1R,2R,3S,4R,5)-5-hydroxy-3-(1-methyl-3-(trifluoromethyl)-1H-pyrazol-4-yl)-N-(3-methyl-5-(trifluoromethyl)phenyl)-7-oxabicyclo[2.2.1]heptane-2-carboxamide]
Chondrocyte, 288 h
  IC50: 7.2 µM
[1]
  Emax: 81%

## Cc1ccc(NC(=O)[C@@H]2[C@@H](c3cn(C(C)C)nc3C(F)(F)F)[C@H]3O[C@@H]2C[C@@H]3O)cc1C(F)(F)F (racemic) [Example 89, rac-(1R,2R,3S,4R,5S)-5-hydroxy-3-(1-isopropyl-3-trifluoromethyl)-1H-pyrazol-4-yl)-N-(4-methyl-3-(trifluoromethyl)phenyl)-7-oxabicyclo[2.2.1]heptane-2-carboxamide]
Chondrocyte, 288 h
  IC50: 19 µM
[1]
  Emax: 40%

## O=C(Nc1cccc(C(F)(F)F)c1)[C@@H]1[C@@H](c2cnc(C(F)(F)F)nc2)[C@H]2O[C@@H]1C[C@@H]2O (racemic) [Example 83, rac-(1R,2R,3S,4R,5S)-5-hydroxy-N-(3-(trifluoromethyl)phenyl)-3-(2-(trifluoromethyl)pyrimidin-5-yl)-7-oxabicyclo[2.2.1]heptane-2-carboxamide]
Chondrocyte, 288 h
  IC50: 24 µM
[1]
  Emax: 43%

## COc1cc([C@H]2[C@H]3O[C@H](C[C@@H]3O)[C@@H]2C(=O)Nc2cc(C(F)(F)F)ccc2F)ccn1 (racemic) [Example 76, rac-(1R,2R,3S,4R,5S)—N-(2-fluoro-5-(trifluoromethyl)phenyl)-5-hydroxy-3-(2-methoxypyridin-4-yl)-7-oxabicyclo[2.2.1]heptane-2-carboxamide]
Chondrocyte, 288 h
  IC50: 7.2 µM
[1]
  Emax: 53%

## Cn1cc([C@H]2[C@H]3O[C@H](C[C@@H]3O)[C@@H]2C(=O)Nc2cc(C(F)(F)F)ccn2)c(C(F)(F)F)n1 (single isomer, unassigned) [Example 38a, (1R,2R,3S,4R,5S)-5-hydroxy-3-(1-methyl-3-(trifluoromethyl)-1H-pyrazol-4-yl)-N-(4-(trifluoromethyl)pyridin-2-yl)-7-oxabicyclo[2.2.1]heptane-2-carboxamide or (1S,2S,3R,4S,5R)-5-hydroxy-3-(1-methyl-3-(trifluoromethyl)-1H-pyrazol-4-yl)-N-(4-(trifluoromethyl)pyridin-2-yl)-7-oxabicyclo[2.2.1]heptane-2-carboxamide]
  IC50: 5.9 µM
Value in parentheses
  ALP in NHAC (% Efficacy): 81%
